Source: patent US10189863B2, “5,6-dihydro-4H-benzo[b]thieno-[2,3-d]azepine derivatives” (PULMOCIDE LIMITED, priority 2014, dated 2019)

Legend:
HEp2 cells = test: Cell viability: resazurin assay; type: cell-based, human; settings: 5 days
Summary of the method: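 HEp2 cells in 5% FBS DMEM exposed to compounds (0.5% DMSO final) for 5 days at 37 °C/5% CO2, then resazurin added for 6 h; fluorescence read at 545/590 nm. Percent viability loss calculated versus 0.5% DMSO vehicle, with increases shown as negative values; CC50 taken from concentration-response curves where appropriate.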

RSV A2 = test: RSV infection in mice: virus titre in lung (plaque assay); type: in vivo, mice (male BALB/C); settings: for Virus titre in lung, Geometric mean / Virus titre in lung, Median: mice, day 4
Method: Non-fasted mice (male BALB/C, 20-30 g) were infected intranasally with RSV A2 or virus diluent (DMEM, 2% FBS, 12.5% sucrose) under isoflurane (5% in O2) anaesthesia. The A2 strain of RSV (50 μL of 1.3×10^6 PFU/mL: final 0.65×10^5 PFU/mouse) was instilled into each nostril in a drop wise fashion alternating between the two until a volume of 50 μL was delivered. Following infection each animal was weighed on a daily basis to monitor changes. Test compounds were dissolved in 100% DMSO (at 20 mg/mL and/or 2 mg/mL), then diluted at 1:10 in isotonic saline to achieve 10% DMSO in all treatments. Formulations were then sonicated to produce a suspension. The suspension was administered intratracheally (20 μL) with a FMJ-250 PennCentury device or intranasally (40 μL) with a pipette on 1 day and 1 hr before infection (day 0), and then on days 1, 2 and 3 post infection. Four days after RSV challenge, the animals were euthanised (by intraperitoneal injection of a pentobarbitone overdose), the trachea cannulated and BALF extracted for total and differential cell counts. Following BALF collection, the right lung was removed from each animal and homogenised in ice-cold Dulbecco's modified Eagles medium (using 10 times the lung weight of DMEM containing 1% BSA and 25% sucrose) for 2×20 second bursts. The homogenate was then transferred into a sterile tube and spun at 4° C. (2000 rpm; for 5 min). The clarified homogenate was transferred to a chilled cryovial, snap frozen and stored at −80° C. The supernatants from lung homogenates were used for Plaque assay.
HEp2 cells were grown in 24-well plates (Corning) for 48 hr prior to infection in DMEM containing 10% FBS until they attained 100% confluency. Lung homogenate was thawed at RT and ten-fold serial dilutions were prepared in serum-free DMEM. The growth medium from HEp2 cells was aspirated and replaced with 300 μL of serially diluted lung homogenate and left to infect (4 hr; 37° C./5% CO2). The infectious media were aspirated and replaced with Plaque Assay Overlay (500 μL; 1% methylcellulose in MEM, 2% FBS, 1% Pen Strep, 0.5 μg/mL amphotericin B), and left for 7 days (37° C./5% CO2). Cells were fixed with ice-cold methanol for 10 min and blocked with 5% powdered milk (Marvel) in 0.05% PBS-tween (blocking buffer) for 1 hr at RT.
Anti-RSV F-protein antibody [2F7] (Abcam: ab43812) was diluted to a 1:100 concentration in blocking buffer and added to cells for 1 hr at RT with shaking. Cells were washed using PBS and then incubated with the secondary antibody (HRP conjugated goat anti-mouse secondary antibody (Dako P044701-2) diluted in 1:400 with blocking buffer) for 1 hr at RT with shaking. The secondary antibody solution was removed and cells were washed with PBS before the metal-enhanced development substrate DAB was prepared in ultra-pure water (according to manufacturer's instructions). Each well received 300 μL of development substrate (sigmaFAST D0426) until plaques were visible. Plaques were counted by eye and confirmed using light microscopy, allowing the calculation of plaque forming units per mL of lung homogenate supernatant.

hRSV/A/Long [1] = test: RSV infection in cotton rats: virus titre in lung (plaque assay); type: in vivo, Sigmodon hispidus cotton rats; settings: intranasal
Method: RSV Infection in Cotton Rats
Male Sigmodon hispidus cotton rats between 6 and 8 weeks of age were infected with hRSV/A/Long (ATCC, Manassas, Va.; 10^5 pfu) in a volume of 0.1 mL of sucrose stabilizing media. Test compounds were dissolved in 100% DMSO (at 3.3, 10, 33 and 100 mg/mL), then diluted at 1:10 in isotonic saline to achieve 10% DMSO in all treatments. Formulations were then sonicated to produce suspensions. The resulting suspensions were administered intranasally (50 μL) by pipette 4 hr before infection (on day 0), and then on days 1, 2 and 3 post infection. Four days after RSV challenge, the animals were euthanised and the lungs were removed. The left lobe was used for viral titration via plaque assay and the lingular lobe for RSV/A/Long NS-1 qRT-PCR and cytokine qRT-PCR.
The supernatant of lung homogenates were diluted 1:10 and 1:100 in Eagle (E)-MEM. Confluent HEp2 monolayers in 24-well plates were infected in duplicate (50 μL of sample per well) starting with undiluted (neat) samples followed by diluted homogenates. After incubation for 1 hr (37° C./5% CO2) wells were overlaid with 0.75% methylcellulose medium and plates replaced in the 37° C. incubator. After incubation (for 4 days), the overlay was removed, the cells fixed with 0.1% crystal violet stain (for 1 hr) and then rinsed and air-dried. Plaques were counted and viral titers were expressed as plaque forming units per gram (pfu·g^−1) of tissue.

hRSV/A/Long [2] = test: as above; type: in vivo, Sigmodon hispidus cotton rats; settings: for Virus titre in lung, Geometric mean: cotton rats, intranasal, day 4
[3] = intranasal, Drug Conc 0.2 mg/mL
[4] = intranasal, Drug Conc 2 mg/mL, LOQ 1.5
[5] = intratracheal, Drug Conc 0.2 mg/mL, LOQ 1.5
[6] = Drug Conc 10 mg/mL, day 4, LOQ 2.3

Cc1cnc(N2CC3(CCOCC3)C2)c(C(=O)Nc2ccc(C(=O)N3CCc4cc(C(=O)Nc5c(C)cccc5F)sc4-c4ccccc43)cc2)c1 [Example 5, N-(2-Fluoro-6-methylphenyl)-6-(4-(5-methyl-2-(7-oxa-2-azaspiro[3.5]nonan-2-yl)nicotinamido)benzoyl)-5,6-dihydro-4H-benzo[b]thieno[2,3-d]azepine-2-carboxamide]
CC50 (HEp2 cells): > 14 µM
Effect on virus titre in the lungs (in words) (RSV A2; RSV A2 infected mice): completely inhibited virus titre
Virus titre in lung, Geometric mean (RSV A2; [3]): 2.4 log PFU/lung
Virus titre in lung, Median (RSV A2; [3]): 2.5 log PFU/lung
Virus titre in lung, Geometric mean (RSV A2; [4]): <1.5^2 log PFU/lung
Virus titre in lung, Median (RSV A2; [4]): <1.5^2 log PFU/lung
Virus titre in lung, Geometric mean (RSV A2; [5]): <1.5^2 log PFU/lung
Virus titre in lung, Median (RSV A2; [5]): <1.5^2 log PFU/lung
Virus titre in lung, Geometric mean (hRSV/A/Long [1]; Drug Conc 0.33 mg/mL, day 4): 4.7 log, PFU/lung
Virus titre in lung, Median (hRSV/A/Long [1]; Drug Conc 0.33 mg/mL, day 4): 4.7 log, PFU/lung
Virus titre in lung, Median (hRSV/A/Long [1]; Drug Conc 1.0 mg/mL, day 4): 4.5 log, PFU/lung
Virus titre in lung, Median (hRSV/A/Long [1]; Drug Conc 3.3 mg/mL, day 4, LOQ 2.3): <2.3^2 log, PFU/lung
Virus titre in lung, Geometric mean (hRSV/A/Long [1]; [6]): <2.3^2 log, PFU/lung
Virus titre in lung, Median (hRSV/A/Long [1]; [6]): <2.3^2 log, PFU/lung
Effect on virus titre in the lungs (in words) (hRSV/A/Long [2]; RSV A2 infected cotton rats): completely inhibited virus titre
Virus titre in lung, Geometric mean (hRSV/A/Long [2]; Drug Conc 1.0 mg/mL): 4.5 log, PFU/lung
Virus titre in lung, Geometric mean (hRSV/A/Long [2]; Drug Conc 3.3 mg/mL, LOQ 2.3): <2.3^2 log, PFU/lung
Effect on virus titre in lung homogenates (in words) (hRSV/A/Long [2]; hRSV/A/Long infected cotton rats on day4): potent dose-dependent inhibition of virus titre
